Experimental data reported in US6897198B2, “Method of treatment with combinations of statin and aryl-substituted propanolamine derivatives” (Aventis Pharma Deutschland GmbH, priority 1998, dated 2005).

How the values were obtained:
[1] = biological target: T1, Na+-dependent bile acid transport system (Oryctolagus cuniculus, UniProt Q28727); assay: Inhibition of Na+-dependent [3H]-taurocholate uptake in rabbit ileum cuticular layer membrane vesicles; assay type: biochemical; conditions: Table 1, 50 μM taurocholate, incubation normally 1 minute
T1 construct: Cuticular layer membrane vesicles were prepared from ileum cells by the so-called Mg^2+ precipitation method; from tissue; host or cells: terminal ileum of male New Zealand rabbits (brush-border / cuticular layer membrane vesicles)
T1 sequence (Q28727 1-347): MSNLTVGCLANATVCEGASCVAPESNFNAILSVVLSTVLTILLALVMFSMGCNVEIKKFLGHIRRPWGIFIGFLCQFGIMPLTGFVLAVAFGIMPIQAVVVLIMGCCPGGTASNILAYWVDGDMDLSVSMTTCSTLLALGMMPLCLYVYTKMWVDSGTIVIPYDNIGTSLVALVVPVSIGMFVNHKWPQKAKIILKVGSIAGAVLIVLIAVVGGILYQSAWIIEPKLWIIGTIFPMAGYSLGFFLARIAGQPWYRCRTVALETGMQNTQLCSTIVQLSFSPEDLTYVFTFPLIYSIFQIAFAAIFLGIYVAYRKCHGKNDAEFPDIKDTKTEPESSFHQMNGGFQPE
Procedure: The compounds according to the invention were tested in a biotest by determining the inhibition of [^3H]-taurocholate uptake in rabbit ileum cuticular layer membrane vesicles. The inhibitory test was carried out as follows:
1. Preparation of Rabbit Ileum Cuticular Layer Membrane Vesicles
Cuticular layer membrane vesicles were prepared from ileum cells by the so-called Mg^2+ precipitation method. Male New Zealand rabbits (body weight 2 to 2.5 kg) were sacrificed by intravenous injection of 0.5 ml T61®, an aqueous solution of 2.5 mg of tetracaine —HCl, 100 mg of embutramide and 25 mg of mebezonium iodide. The ileum was removed and washed with ice-cold physiological saline. The terminal 7/10th of the ileum (measured in the oral-rectal direction, i.e., the terminal ileum, which contains the active Na^+-dependent bile acid transport system) were used for preparing the cuticular layer membrane vesicles. The intestines were frozen in polymer bags at −80° C. under nitrogen. To prepare the membrane vesicles, the frozen intestines were defrosted in a water bath at 30° C. The mucosa was scraped off and suspended in 60 ml of ice-cold 12 mM TRIS/HCl buffer (pH 7.1)/300 mM mannitol, 5 mM EGTA/10 mg/l phenylmethylsulfonyl fluoride/1 mg/l soybean trypsin inhibitor (32 (U/mg)/0.5 mg/l bovine lung trypsin inhibitor (193 U/mg)/5 mg/l bacitracin. After the mixture had been diluted to 300 ml with ice-cold distilled water, it was homogenized in an Ultraturrax (rod 18, IKA Werk Staufen, Germany) for 3 minutes at 75% of maximum speed, with ice-cooling. After 3 ml of 1 M MgCl2 solution had been added (final concentration 10 mM), the mixture was left to stand at 0° C. for exactly 1 minute. The addition of Mg^2+ causes the cell membranes to aggregate and precipitate with the exception of the cuticular layer membranes. After centrifugation for 15 minutes at 3000×g (5000 rpm, SS-34 rotor), the precipitate was discarded, and the supernatant, which contains the cuticular layer membranes, was centrifuged for 30 minutes at 48,000×g (20,000 rpm, SS-34 rotor). The supernatant was discarded, and the precipitate was rehomogenized in 60 ml of 12 mM TRIS/HCl buffer (pH 7.1)/60 mM mannitol, 5 mM EGTA using a Potter Elvejhem homogenizer (Braun, Melsungen, 900 rpm, 10 strokes). After addition of 0.1 ml of 1 M MgCl2 solution and incubation for 15 minutes at 0° C., the mixture was again centrifuged for 15 minutes at 3000×g. The supernatant was subsequently centrifuged for a further 30 minutes at 48,000×g (20,000 rpm, SS-34 rotor). […]
The uptake of substrates into the above-described cuticular layer membrane vesicles was determined by means of the so-called membrane filtration technique. […]

[2] = test system: gallstone-sensitive mice; assay: Test for gallstone formation (cholesterol gallstone formation, lithogenic diet); assay type: in vivo; conditions: male C57L mice, 100 mg/kg/d (0.1% in the feed), 13 weeks, lithogenic diet alone 5/15
Procedure: Test for Gallstone Formation • 1. Test Substance, Dose and Application • Example 9 of Table 1 (=A1) 100 mg/kg/d 0.1% in the feed • 2. Aim
In this test, the cholesterol gallstone formation in gallstone-sensitive mice was investigated. • 3. Materials and Methods • 3.1 Animals and Housing
The experimental animals used are male C57L mice (Jackson Laboratories) with an average body weight of 25-30 g at the beginning of the adaptation.
The animals were randomly divided into 4 groups (n=10, groups 2 and 3 n=15). Starting at the beginning of the treatment, the mice were either fed a standard rodent feed by Altromin (group 1), or a lithogenic diet by Altromin (groups 2-4); this diet was composed as follows: 15% butter, 1% cholesterol, 50% sugar, 20% casein, 0.5% cholic acid, 5% mineral mix, 2.5% vitamin mix, 2% corn oil, corn starch to 100%. The animals were weighed weekly, and the food consumption was determined by continuous weighings before and after, whereby the dose was calculated. • 3.2. Final Examination
After 11 and 13 weeks, respectively, the animals of each group were sacrificed and the gallbladders subsequently prepared. Gallstones in the gallbladder were then recorded. The gallbladder was dissected, the weight was determined, and the composition of the bile and the gallstones was analyzed.

| Bio. Test (quotient of the IC50Na values of the reference substance taurochenodesoxycholate (TCDC) and the test substance) [1] | SMILES | Frequency of gallstones (n/n) [2] |
| --- | --- | --- |
| 0.24 | O=C(NCCCNc1ccccc1[C@@H](Nc1ccccn1)[C@H](c1ccccn1)[C@H](O)c1ccccc1)[C@H](O)[C@@H](O)[C@H](O)[C@H](O)CO [Example 2] | – |
| 0.83 | CC(=O)OC[C@@H](OC(C)=O)[C@@H](OC(C)=O)[C@H](OC(C)=O)[C@@H](OC(C)=O)C(=O)NCCCCCCCCCCC(=O)Nc1ccccc1[C@@H](Nc1ccccn1)[C@H](c1ccccn1)[C@H](O)c1ccccc1 [Example 8] | – |
| 1.78 | O=C(CCCCCCCCCCNC(=O)[C@H](O)[C@@H](O)[C@H](O)[C@H](O)CO)Nc1ccccc1[C@@H](Nc1ccccn1)[C@H](c1ccccn1)[C@H](O)c1ccccc1 [Example 9] | 0/10 |
| 0.19 | O=C(CCC(=O)Nc1ccccc1[C@@H](Nc1ccccn1)[C@H](c1ccccn1)[C@H](O)c1ccccc1)NC[C@H](O)[C@@H](O)[C@H](O)[C@H](O)CO [Example 15] | – |
